Test results published in PMC5797143, “Epigenetic modulation of inflammation and synaptic plasticity promotes resilience against stress in mice” (Nature Communications, 2018).

What was measured:
[1] = system: CpG-rich sequences of mouse IL-6 promoter and introns 1, 3; assay: CpG-free luciferase reporter with IL-6 promoter/intron CpG-rich segments in N2a cells; format: cell-based; details: 24 h
Protocol: To investigate how DHCA may attenuate IL-6 generation, we tested the effect of DHCA on Toll-like receptor-4 mediated signaling pathways. PBMCs were pretreated with DHCA and stimulated with LPS using the same protocol as during screening. Samples were taken at 0, 30 min, 60 min, 6 h and 16 h following LPS stimulation and cell lysates were subjected to a multiplex ELISA assay. […] Based on evidence that DNA methylation at a single CpG in the human IL-6 promoter region effectively alters IL-6 expression, we next tested whether DHCA can modulate IL-6 gene expression through methylation mechanisms. We treated PBMC cells with DHCA and measured the expression of enzymes essential for DNA methylation/demethylation. […] To investigate how methylation influences IL-6 gene expression, we employed the CpG-free luciferase reporter system. We cloned a ~280 bp CpG rich DNA segment from the mouse IL-6 promoter into a promoterless CpG-free reporter construct and transfected into N2a cells. We found the CpG-rich IL-6 promoter segment presented no inherent promoter activity as reflected by no differences in luciferase activity compared to the control construct (Fig. 2f). […] We then cloned CpG rich DNA segments from IL-6 introns 1, 3 or 4 into the CpG-free luciferase reporter construct with a minimal EF1 promoter and no enhancer activity. […] In contrast, the CpG-rich region of IL-6 intron 4 presented no observable enhancer activity (Fig. 2g). […] To test whether DHCA may influence the expression of other pro-inflammatory factors, we measured the level of secreted cytokines following LPS stimulation (Supplementary Fig. 3).
CpG-rich motif from mouse IL-6 promoter and intron 1, intron 3, and intron 4 were cloned into basic (no promoter or enhancer) or promoter (minimal EF1 promoter with no enhancer) pCpG-free Lucia plasmid (InvivoGen) using In-Fusion Cloning Kit (Clontech Laboratories). Plasmids were prepared in E. coli GT115 cells and expressed in N2A neuoblastoma cells using lipofectamine 2000 (ThermoFisher) according to manufacturer’s instruction. Following overnight recovery, cells were subjected to 5 µM of methylation inhibitor 5-Aza-2′-deoxycytidine (AZA-DC) or DHCA treatment. Twenty-four hours later, 10 µl of medium was incubated with 50 µl of QUANTI-Luc luciferase substrate for luciferase activity assessment.

[2] = system: HDAC2 and other class I or class II HDACs; assay: HDAC gene expression in MSN-enriched primary culture; format: cell-based, mouse; details: MSN-enriched primary cultures
Description: (§1) Stress-induced reduction of Rac1 expression is associated with a repressed chromatin state surrounding the promoter region of Rac1 in the NAc[11]. Since Mal-gluc can cross the BBB, we hypothesized that Mal-gluc may promote Rac1 expression, in part, by modulating chromatin acetylation. We first assessed the effect of Mal-gluc on HDACs that play key roles in chromatin deacetylation. […] Using site directed quantitative chromatin immunoprecipitation (qCHIP), we examined the permissive histone H3 acetylation (AcH3) in Mal-gluc treated MSN-enriched primary cultures.
Striatal tissue from E18 was mechanically triturated and centrifuged. Neurons were seeded onto a poly-D-lysine-coated 12-well plate at 5 × 10^5 cells/well and cultured in Neurobasal medium, supplemented with 2% B27, 0.5 mM L-glutamine, and 1% penicillin-streptomycin (Gibco-BRL, Invitrogen). Following 4 days in vitro (DIV), 5 µM of Ara-c was used to inhibit the growth of glial cells. Following 10-day DIV culturing, neurons were treated with select brain-bioavailable polyphenol metabolites for 16 h, washed once with cold PBS and RNA was then isolated. […]
(§2) Total RNA from MSN-enriched cultures or brain NAc was isolated using the RNeasy Mini Kit (Qiagen, Valencia, CA, USA) and reverse transcribed. Gene expression was measured in four replicates by quantitative RT-PCR using Maxima SYBR Green master mix (Fermentas) in ABI Prism 7900HT. […]

[3] = system: Rac1 promoter histone H3 acetylation / H3K27 trimethylation; assay: Quantitative ChIP along the Rac1 promoter in MSN-enriched primary cultures; format: cell-based, mouse
Description: as §1
Site-directed qChIP was performed for pan-acH3 and H3K27me3 as described previously with modification. Neurons were washed once with PBS and crosslinked in 1% formaldehyde for 15 min, quenched by glycine at a final concentration of 125 mM. Neurons were then rinsed with cold PBS containing protease inhibitor cocktail (Sigma) and scraped off the plate. Cells were resuspended and sonicated with a Bioruptor (15 cycles, 30 sec on/off), which produces chromatin fragments ~350 bp in length. […] Levels of specific histone modifications along the Rac1 promoter were determined by measuring the amount of acetylated or methylated histone-associated DNA using quantitative real-time PCR as previously described.

[4] = system: Rac1; assay: Rac1 expression in E18 MSN-enriched primary culture (screening, dose response); format: cell-based, mouse
Description: BDPP contains a variety of polyphenols. Orally consumed polyphenols are typically bioavailable in various organs and tissues as metabolites (phase II polyphenol conjugates and phenolic acids) following xenobiotic metabolism and gastrointestinal microbiome fermentation. It is possible that some metabolites may counteract the positive effect of the others. Therefore, if supplied as BDPP, the overall benefits might be reduced due to potential ‘cancellation’ effects. By identifying individual metabolites that selectively target key pathological mechanisms (e.g., Rac1 and IL-6) we can greatly improve the efficacy. We and others recently identified 21 BDPP-derived phenolic metabolites that accumulate in blood and/or in the CNS (14 polyphenolic metabolites and 7 phenolic acids, Supplementary Table 1)[25], [28], [33], among which 14 are currently accessible, [34]. We initiated a high-throughput screen of these metabolites for their ability to modulate IL-6 and Rac1. […]
as §2

In the case of `O=C(O)CCc1ccc(O)c(O)c1` [DHCA, 3(3,4-dihydroxy-phenyl) propionic acid], the “luciferase (enhancer) activity, IL-6 intron 1” value [1] is reported as “partially attenuated” and the “luciferase (enhancer) activity, IL-6 intron 3” value [1] is reported as “totally abolished”.
With `COc1cc(-c2[o+]c3cc(O)cc(O)c3cc2O[C@@H]2O[C@H](CO)[C@@H](O)[C@H](O)[C@H]2O)cc(OC)c1O` [Mal-gluc] the “expression of HDAC2” value [2] was “significantly reduced the expression of HDAC2”, the “expression of other class I or class II HDACs” value [2] was “no observable effect” and the “repressive trimethylation of the Rac1 promoter (H3K27)” value [3] was “no effect on the repressive trimethylation”. For the same compound, the “permissive histone H3 acetylation (AcH3) of Rac1” value ([3]; compared to vehicle, across the region surveyed) was “significantly increased permissive acetylation”, the “primary screening, Rac1 expression” value ([4]; 9 brain bioavailable metabolites screened) was “significantly increased Rac1 expression” and the EC50 ([4]; E18 MSN-enriched primary culture, 16 h, read-out: calculated EC50, increase of Rac1 expression) was 3.52 nM.
